Source: patent US20260306640A1, “TECHNOLOGIES TARGETING CELL STATES” (Auron Therapeutics, Inc., priority 2023, published 2026)
Where two headings read alike, the source gives them in different places.

How the values were obtained:
histone acetylation = test: Western blot of histone acetylation in NCI-H1048 tumors, 168 hours post last dose; type: in vivo; conditions: FIG. 1 (F)
Method: FIG. 1. Provided compounds can provide various activities including inhibiting tumor growth in vivo. (A): Provided compounds can inhibit tumor growth in vivo. Nude Balb/c mice were inoculated with NCI-H1048 cells in Matrigel. Tumors were allowed to grow up to about 200 mm^3 and mice were then randomized into two groups. Mice were dosed intraperitoneally (i.p.) once per week with vehicle or 30 mg/kg compound 22. Tumor size was measured every three to four days and mice were sacrificed once vehicle tumors reached 2000 mm^3. Error bar is SEM. Dosing started at day 17 post tumor inoculation. (B): Provided technologies can reduce KAT2A and KAT2B levels and histone acetylation levels. […] Vehicle is DMSO. […] Cell count data relative to DMSO control after 8 days of treatment with compound 22 are presented as examples to confirm inhibition. GI50=6 nM. (D): Provided technologies can inhibit tumor growth in vivo. Nude balb/c mice inoculated with H1048 tumors were dosed intraperitoneally once per week (qw i.p.) with vehicle (HbCD) or compound 22. Average tumor volumes+/−SEM from 6 mice are represented. […] See also (A). […] Certain body weights relative to starting weight are presented as examples to confirm tolerability and safety. (F): Provided technologies can reduce KAT2A and KAT2B levels and histone acetylation levels in tumor in vivo. […]

KAT2A [1] = biological target: T1, KAT2A (Homo sapiens, UniProt Q92830); test: Western blot of KAT2A level in NEPC primary patient organoid, 72 hours; type: cell-based; parameters: degrader, Western blot; conditions: FIG. 3 (D)
Method: FIG. 3. Provided compounds can provide various activities. (A): Provided technologies can reduce KAT2A and KAT2B levels and histone acetylation levels. […] Cell viability (Cell Titer Glo) data relative to DMSO control after 7 days of treatment with compound 22 are presented as examples to confirm inhibition. GI50=5 nM. (C): Provided technologies can modulate cell states and induce differentiation. […] (D): Provided technologies can reduce KAT2A and KAT2B levels and histone acetylation levels including in neuroendocrine prostate cancer primary patient organoid. […] Concentrations are nM. […] Cell viability data relative to DMSO control after 21 days of treatment with compound 22 are presented as examples to confirm inhibition. GI50=3 nM. (F): Provided technologies can modulate cell states and induce differentiation.

LASCPC-01 cells = test: Inhibition of growth in vivo, neuroendocrine prostate cancer (LASCPC-01) cells; conditions: FIG. 3 (see also Example B3)
KAT2A [2] = biological target: T1, KAT2A; test: KAT2A degradation, Western Blot (Jess), NCI-H1048 cells; type: cell-based; parameters: degrader, Western blot (Jess)
Summary of the method: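 NCI-H1048 cells grown in HITES medium with 5% FBS were treated with compounds for 24 h at 37° C. Lysates were run by capillary Western (Jess) with KAT2A or KAT2B antibodies and chemiluminescent detection. DC50 derived from percent protein reduction versus DMSO control.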

T1 sequence (Q92830 whole entry): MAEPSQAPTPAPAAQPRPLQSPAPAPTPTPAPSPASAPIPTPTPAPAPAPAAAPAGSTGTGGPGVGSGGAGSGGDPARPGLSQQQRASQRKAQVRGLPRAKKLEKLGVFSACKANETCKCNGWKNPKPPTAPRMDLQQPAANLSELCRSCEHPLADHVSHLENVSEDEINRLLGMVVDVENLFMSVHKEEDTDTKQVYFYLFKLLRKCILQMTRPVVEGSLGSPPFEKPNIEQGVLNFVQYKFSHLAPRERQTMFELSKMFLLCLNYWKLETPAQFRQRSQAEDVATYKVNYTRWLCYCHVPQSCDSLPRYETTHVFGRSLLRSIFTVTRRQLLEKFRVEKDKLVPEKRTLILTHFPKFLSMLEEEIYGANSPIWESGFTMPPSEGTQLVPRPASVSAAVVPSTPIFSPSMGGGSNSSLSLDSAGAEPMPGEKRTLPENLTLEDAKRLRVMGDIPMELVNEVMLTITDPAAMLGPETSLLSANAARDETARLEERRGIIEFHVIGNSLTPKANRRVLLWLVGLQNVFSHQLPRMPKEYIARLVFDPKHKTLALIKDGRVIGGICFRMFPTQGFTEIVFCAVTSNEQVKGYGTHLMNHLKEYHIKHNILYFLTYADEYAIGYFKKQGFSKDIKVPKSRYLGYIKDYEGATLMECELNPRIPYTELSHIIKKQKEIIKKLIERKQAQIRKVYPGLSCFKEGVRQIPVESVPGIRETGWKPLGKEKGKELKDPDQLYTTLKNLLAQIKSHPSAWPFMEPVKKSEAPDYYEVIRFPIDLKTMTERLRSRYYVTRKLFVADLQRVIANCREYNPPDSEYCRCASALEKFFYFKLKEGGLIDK

reduction of KAT2A level (KAT2A [1]): confirmed such reductions
EC90 (KAT2A [2]; 24 h, NCI-H1048, KAT2A, read-out: DC90 (the source's name)): 0.29 nM
DC50 (KAT2A [2]; NCI-H1048, KAT2A, read-out: DC50): 0.01 nM
KAT2A levels (KAT2A [2]; NCI-H1048 cells, FIG. 1): potently reduce KAT2A and KAT2B levels
DC50 (KAT2A [2]; NCI-H1048 cells, KAT2A, 24 h, Western Blot, vs DMSO, read-out: KAT2A NCI-H1048 DC50): < 1 nM
SMILES: CN1C[C@H](Nc2cnn(C)c(=O)c2Br)C[C@H](c2ccc(C(=O)N3CCC(CN4CCN(c5ccc6c(c5)CN(C5CCC(=O)NC5=O)C6=O)CC4)CC3)cc2)C1 (stereo partly drawn) [Compound 22, 3-(5-(4-((1-(4-((3R,5R)-5-((5-bromo-1-methyl-6-oxo-1,6-dihydropyridazin-4-yl)amino)-1-methylpiperidin-3-yl)benzoyl)piperidin-4-yl)methyl)piperazin-1-yl)-1-oxoisoindolin-2-yl)piperidine-2,6-dione]
reduction of histone acetylation in tumor (histone acetylation): significant reduction
cell growth in vivo (LASCPC-01 cells): inhibit cell growth in vitro and in vivo
